Data from ChEMBL document CHEMBL1159384, “Antidiabetic dimeric guianolides and a lignan glycoside from Lactuca indica” (2003).

Test system: Rattus norvegicus
Experiment: Antidiabetic activity in STZ-diabetic rat assessed as lowering of plasma glucose level at 1 mM/kg
Format: functional

Compound	Activity [%]
COc1cc([C@H]2O[C@@H](O)[C@@H]3[C@H]2[C@H](O[C@@H]2O[C@H](CO)[C@@H](O)[C@H](O)[C@H]2O)O[C@@H]3c2ccc(O)c(OC)c2)ccc1O [LACTUCASIDE]	-17.95
C=C1C(=O)O[C@@H]2[C@H]3C(COC(=O)Cc4ccc(O)cc4)=CC(=O)C3=C(C)C[C@H](O[C@H]3CC(C)=C4C(=O)C=C(COC(=O)Cc5ccc(O)cc5)[C@@H]4[C@H]4OC(=O)[C@@H](C)[C@@H]43)[C@@H]12 [LACTUCAIN C]	-22.74
